In patent US8088780B2, “5,7-disubstituted thiazolo[4,5-D]pyrimidines for the selective inhibition of chemokine receptors” (AstraZeneca AB, priority 2005, dated 2012) one finds Ki data, which are given here for two molecules.

For one test, the target named is T1, CXCR2 (Homo sapiens, UniProt P25025).
T1 construct: kept under geneticin/G418 selection
T1 sequence (P25025 1-360): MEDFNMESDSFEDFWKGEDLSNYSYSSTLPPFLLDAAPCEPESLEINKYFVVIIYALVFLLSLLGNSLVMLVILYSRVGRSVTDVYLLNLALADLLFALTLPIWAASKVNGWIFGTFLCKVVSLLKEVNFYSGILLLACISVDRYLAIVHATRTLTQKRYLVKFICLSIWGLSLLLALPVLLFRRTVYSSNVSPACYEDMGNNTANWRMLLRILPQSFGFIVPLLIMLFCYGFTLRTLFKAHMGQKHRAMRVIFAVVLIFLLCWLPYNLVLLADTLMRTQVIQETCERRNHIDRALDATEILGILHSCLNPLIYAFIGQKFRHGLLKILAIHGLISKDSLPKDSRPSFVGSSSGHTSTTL
In words: [125I]-hIL-8 competition binding (SPA) on membranes of cells expressing human CXCR2. The note with it: receptor binding, [125I]-hIL-8, human CXCR2 membranes.

The target of the next test is T2, CX3CR1 (Homo sapiens, UniProt P49238).
T2 construct: expressed in transfected cells
T2 sequence (P49238 1-355): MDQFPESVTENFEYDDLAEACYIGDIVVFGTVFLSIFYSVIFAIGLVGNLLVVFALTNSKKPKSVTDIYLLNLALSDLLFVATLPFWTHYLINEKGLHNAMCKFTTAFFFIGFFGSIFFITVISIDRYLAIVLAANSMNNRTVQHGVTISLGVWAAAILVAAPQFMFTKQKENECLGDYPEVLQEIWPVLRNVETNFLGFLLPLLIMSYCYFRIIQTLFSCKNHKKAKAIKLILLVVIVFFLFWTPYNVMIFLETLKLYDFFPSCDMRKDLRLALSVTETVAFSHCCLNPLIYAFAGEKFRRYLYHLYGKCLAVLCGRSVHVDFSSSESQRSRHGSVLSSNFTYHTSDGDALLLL
In words: [125I]-fractalkine competition receptor binding assay on membranes of cells expressing hCX3CR1. The note with it: HEKS 293 hCX3CR1 membranes.

Procedure for CX3CR1: The complete human CX3CR1 cDNA (GenBank accession number U20350) was extracted from human brain mRNA (Superscript, Life Technologies) and ligated into pCR-Blunt II TOPO vector (InVitrogen). The insert corresponding hCX3CR1 was isolated and further subcloned into pcDNA3.1zeo. Plasmid DNA was prepared using Plasmid Midi Kit (Qiagen). […] A stable clone was generated utilizing zeocin (500 μg/mL) and hygromycin (100 μg/mL) selection. For further applications the cells were maintained in Dulbecco's modified Eagle's medium/Ham's nutrient mix F12 (DMEM/F12) containing pyridoxine and supplemented with 10% (v/v) fetal bovine serum, 2 mM L-glutamine, 100 U/ml penicillin and 100 mg/ml streptomycin, 250 μg/mL zeocin and 100 μg/mL hygromycin.
Cells are grown at 37° C. and 5% CO2 and harvested at 60-80% confluence in buffer containing 10 mM Tris-HCl pH 7.4, 5 mM EDTA, 0.1 mg/mL bacitracin. The cells are centrifuged at 300×g for 10 min and the pellet is resuspended in harvesting buffer (10 mM Tris-HCl, pH 7.4, 5 mM ethylenediaminetetra-acetic acid (EDTA) and 0.1 mg/mL bacitracin), pooled and homogenised using a Dounce homogeniser. […]
Ten concentrations (2 points/log unit) of the test compounds were pre-dissolved in DMSO and added to reach a final concentration of 1% (v/v) DMSO. […] Scintillation cocktail was added and radioactivity was determined in a Packard 2500TR liquid scintillation counter.
Procedure for CXCR2: Cells expressing human CXCR2 obtained from AstraZeneca Charnwood are cultured in EMEM containing Glutamax and supplemented with 10% FBS (from PAA, Austria), 1% non-essential amino acids (NEAA), 100 U/mL penicillin and 100 μg/mL streptomycin (PEST) and 500 μg/mL geneticin/G418.
Cells are grown at 37° C. and 5% CO2 and harvested at 60-80% confluence in buffer containing 10 mM Tris-HCl pH 7.4, 5 mM EDTA, 0.1 mg/mL bacitracin. The cells are centrifuged at 300×g for 10 min and the pellet is resuspended in harvesting buffer (10 mM Tris-HCl, pH 7.4, 5 mM ethylenediaminetetra-acetic acid (EDTA) and 0.1 mg/mL bacitracin), pooled and homogenised using a Dounce homogeniser. The homogenate is centrifuged in 48000×g for 10 min and resuspended in harvesting buffer using Ultra-Turrax T8. Membrane aliquots are stored at −80° C.
The non-specific binding is determined in the presence of 500 nM unlabelled hIL-8. The agonist hIL-8 (a concentration-response curve from 3 pM to 30 nM), is used as reference compound at each test occasion. […] The binding reaction is started by addition of 140 μL membrane-SPA preparation, and the samples are incubated in dark at RT for 4 h.

For orientation: Ki means a measure of affinity in units of concentration, obtained from inhibition or displacement. Read a low Ki as higher affinity. Regarding `CCC(Sc1nc(N[C@@H](CO)CC(C)C)c2sc(=O)[nH]c2n1)c1ccccc1` (stereo partly shown), the values for the Ki at CXCR2 and on CX3CR1 were 651 nM and 5.8 nM, respectively.
Consider `CC(C)C[C@H](CO)Nc1nc(SCc2ccccc2)nc2[nH]c(=O)sc12` [5-(benzylthio)-7-{[(1R)-1-(hydroxymethyl)-3-methylbutyl]amino}[1,3]thiazolo[4,5-d]pyrimidin-2(3H)-one], for which the values for the Ki at CXCR2 and at CX3CR1 were 79 nM and 54 nM, respectively.
